# Laboratory results from patent US5440041A, “Acetal or ketal substituted xanthine compounds” (Cell Therapeutics, Inc., priority 1994, dated 1995).
# Read-outs that look alike come from different tables or passages of the source.
# How the values were obtained:
# [1] = system: adhesion of U937 cells to activated human umbilical vein endothelial cells (HUVEC); experiment: Adhesion of U937 cells to TNF-activated HUVEC; format: cell-based; conditions: HUVEC activated with 20 ng/ml human TNF for 12 hours; drug one hour prior to TNF; FIG. 5
# Procedure: Another assay measures the effects of drug to inhibit adhesion of U937 cells to TNF-activated HUVEC cells In this experiment, HUVEC cells are induced with human TNF-α (20 ng/ml) and drug at varying concentrations for 14-16 hrs. U937 cells (a human monocyte cell line) are incubated and labeled with BCECF (10 μg/ml), a fluorescent dye. The U937 cell preparation (2.5×10^4 cells per well) is layered on top of the activated HUVEC cells. The cells are reverse spun to remove partially adhering and nonadhering U937 cell. The adherent U937 cells are measured by fluorescence on a fluorescent plate reader.
# This example illustrates the effect of CT1573 to inhibit adhesion of U937 cells to activated human umbilical vein endothelial cells (HUVEC). HUVEC cells (4000/well, seeded 72 hrs in advance) were activated with 20 ng/ml of human TNF for 12 hours. CT1573 was added to the samples one hour prior to adding TNF. U937 cells were preloaded with a fluorescent dye (BCECF) were added to the HUVEC cells in each well for 30 min, the cells washed twice with PBS and adhesion measured after washing. Adhesion was measured on a fluorescence plate reader. Background adhesion of U937 cells to non-activated HUVEC is shown as a dashed line.
# human stromal cells = experiment: Stromal cell proliferation stimulated by PDGF; format: cell-based; conditions: for IC50: Homo sapiens; for inhibition of proliferation of human stromal cells stimulated with PDGF: in words
# Procedure: Another assay for measuring activity of the inventive compounds involves determining PDGF (platelet derived growth factor) proliferative response using human-derived stromal cells. […] Two to three days later, the stromal cells are starved in serum-free media. Twenty four hours later, the cells are treated with a stimulating agent, such as PDGF-AA, PDGF-BB or basic FGF (fibroblast growth factor) with or without IL-1α or TNF, and tritiated thymidine. Cell proliferation is determined by liquid scintillation counting.
# This assay is a model for restenosis and treatment of atherosclerosis and coronary artery disease. Stromal cells were starved in serum-free media for 24 hrs and then stimulated with PDGF-BB (50 ng/ml). The drugs were added at various concentrations one hour prior to PDGF stimulation. Tritiated thymidine was added for 24 hrs at the time of PDGF stimulation and proliferation determined by harvesting and counting the cells by liquid scintillation 24 hrs later.
# VCAM = experiment: Cell surface expression of VCAM in TNF-α-stimulated HUVEC (flow cytometry); format: cell-based, human; conditions: TNF-α (20 ng/ml) for 20 hrs; mean fluorescence intensity; FIG. 6
# Procedure: Drug inhibitory activity can also be measured by determining levels of vascular cell adhesion molecule (VCAM) in stimulated cells. Early passage human umbilical vein endothelial cells (HUVEC) (obtained from commercial suppliers such as Cell Systems, Inc. or Clonetics) are cultured in media (e.g., Hepes buffered media, Cell Systems) containing 10% fetal bovine serum, and supplemented with a stimulating agent, such as fibroblast growth factor (acidic FGF, Cell Systems, Inc.) or TNF. The cells are plated into wells of a microliter plate (e.g., 5×10^4 per well) and allowed to incubate at 37° C. for 72 hrs. […] After 30 min on ice, the cells are washed twice and analyzed on a flow cytometer (Coulter Elite®) at appropriate emission and excitation wavelengths (e.g., for phycoerythrin use excitation at 488 nm and emission at […]).
# The cells were stimulated with TNF-α(20 ng/ml) for 20 hrs and then stained for immunofluorescence using a monoclonal antibody recognizing VCAM, followed by a goat anti-mouse antibody conjugated to phycoerythrin. The cells were analyzed for antibody binding using flow cytometry.
# 293-EBNA cells = experiment: Reporter gene expression (CMV promoter, secreted placental alkaline phosphatase) in tumor cells; format: cell-based; conditions: compared with CT1501R, CT1567 and CT1590; absorbance at 405 nm; FIG. 7
# Description: FIG. 7 illustrates the effects of CT1590 (racemate N-(5,6-[…]) theobromine), CT1573, CT1567 and CT1501R (an alcohol-substituted xanthine) on cell proliferation as a measure of antitumor activity and the ability of each drug to inhibit gene expression in tumor cells. A specific plasmid construct employing a human CMV (cytomegalovirus) promoter directs the expression of a reporter gene (secreted human placental alkaline phosphatase) that was transformed into the tumor cell line 293-EBNA cells. The cells were treated with various concentrations of drug. Antitumor activity was measured in culture supernatants by expression of alkaline phasphatase reporter gene by absorbance at 405 nm of cell conditioned medium in the presence of substrate (e.g., ortho-nitrophenol phosphate) as described in Berger et al. (Gene 66:1-10, 1988).
# This example illustrates the effects of CT1590 (racemate N-(5,6-ethylenedioxyhexyl) theobromine), CT1573, CT1567 and CT1501R (an alcohol-substituted xanthine) on cell proliferation as a measure of antitumor activity and the ability of each drug to inhibit gene expression in tumor cells. A specific plasmid construct employing a human CMV (cytomegalovirus) promoter directs the expression of a reporter gene (secreted human placental alkaline phosphatase) that was transformed into the tumor cell line 293-EBNA cells. […]
# [2] = system: PBMC (peripheral blood mononuclear cells); experiment: Two-way mixed lymphocyte reaction (MLR); format: cell-based, human; conditions: FIG. 1, FIG. 8
# Description: Various in vitro assays can be used to measure effects of the inventive compounds to modulate immune activity and have antitumor activity using a variety of cellular types. For example, a mixed lymphocyte reaction (MLR) provides a valuable screening tool to determine biological activity of each inventive compound. In the MLR, PBMCs (peripheral blood mononuclear cells) are obtained by drawing whole blood from healthy volunteers in a heparinized container and diluted with an equal volume of hanks balanced salt solution (HBSS). This mixture is layered on a sucrose density gradient, such as a Ficoll-Hypaque® gradient (specific gravity 1.08), and centrifuged at 1000×g for 25 minutes at room temperature or cooler. PBMC are obtained from a band at a plasma-Ficoll interface, separated and washed at least twice in a saline solution, such as HBSS. Contaminating red cells are lysed, such as by ACK lysis for 10 min at 37° C., and the PBMCs are washed twice in HBSS. The pellet of purified PBMCs is resuspended in complete medium, such as RPMI 1640 plus 20% human inactivated serum. Proliferative response of PBMC to allogeneic stimulation is determined in a two-way MLR performed in a 96-well microtiter plate. […] At the conclusion of the incubation tritiated thymidine is added (for example, 1 μCi/well of 40 to 60 Ci/mmole) and proliferation determined by liquid scintillation counting. […]
# thymocyte [3] = experiment: Thymocyte proliferation stimulated by ConA and IL-2; format: cell-based, mice (Balb/C); conditions: drug added two hours prior to activation; FIG. 3
# Procedure: (§1) A thymocyte costimulator assay is conducted to evaluate the inventive compounds to inhibit activation and proliferation of thymocytes caused by stimulation with Con A and interleukin-1 (IL-1), or interleukin-2 (IL-2). Thymuses are obtained from mice (e.g., female Balb/C mice) and the thymuses are removed and dissociated into culture media (e.g., RPMI 1640 without serum supplementation). The dissociated thymus tissue and cell suspension is transferred to centrifuge tubes and allowed to settle, washed with HBSS and resuspended in serum-supplemented culture media (e.g., RPMI 1640 with 10% fetal calf serum). Any contaminating red cells are lysed, and viable cells are resuspended and counted. Thymocytes are plated (e.g., 96-well plates at a density of 2×10^5 cells/well) and a stimulating agent, such as Con A, IL-1 (e.g., IL-1α) or IL-2 is added to the well. The cells are incubated for 4 days at 37° C. On the fourth day, the cells are pulsed with tritiated thymidine and cell proliferation determined. […]
# (§2) Thymuses were obtained from normal, female Balb/C mice, dissociated, and plated into 96-well plates at a density of 2×10^5 cells/well. ConA and IL-1α were added to the wells and the cells were incubated for 4 days at 37° C. […] The cells were harvested and incorporated tritiated thymidine was determined in a liquid scintillation counter. […]
# thymocyte [4] = experiment: Thymocyte proliferation stimulated by ConA and IL-1α; format: cell-based, mice (Balb/C); conditions: drug added two hours prior to activation; FIG. 2
# Procedure: as §1, §2
# [5] = U.S. Pat. Nos. 4,515,795 and 4,576,947; cited from earlier work
# [6] = system: polymorphonuclear leukocytes; conditions: in response to a stimulator of chemotaxis; U.S. Pat. No. 4,636,507; cited from earlier work
# [7] = PDGF BB and IL-1α, FIG. 4, FIG. 9, read-out: IC50 to inhibit stromal cell proliferation stimulated by PDGF BB and IL-1α
SMILES,IC50 (human stromal cells; [7]) [µM],inhibition of proliferation of human stromal cells stimulated with PDGF (human stromal cells),inhibition of cell surface expression of VCAM in HUVEC cells (VCAM),activity in mixed lymphocyte reaction (proliferative response of PBMC to allogeneic stimulation) [2],further results
"Cn1cnc2c1c(=O)n(CCCCCCCCC1COCO1)c(=O)n2C (racemic) [CT1573, N-(9,10-methylenedioxydecyl)-3,7-dimethylxanthine]",< 100,strongly inhibit proliferation,inhibit cell surface expression of VCAM,,"inhibition of adhesion of U937 cells to activated HUVEC [1]: reduced adhesion in a dose-dependent manner; IC50 (human stromal cells; 1 h, PDGF-BB (50 ng/ml), drug one hour prior to stimulation, FIG. 4, read-out: IC50 to inhibit stromal cell proliferation stimulated by PDGF BB): < 100 µM; inhibition of gene expression in tumor cells (antitumor activity) (293-EBNA cells): strongly inhibited gene expression"
"Cn1cnc2c1c(=O)n(CCCCC1COCO1)c(=O)n2C (racemic) [CT1590, N-(5,6-methylenedioxyhexyl)-3,7-dimethylxanthine]",~100,strongly inhibit proliferation,,showed activity,
Cn1cnc2c1c(=O)n(CCCCCC1OCCO1)c(=O)n2C [CT1567],,,inhibit cell surface expression of VCAM,showed activity,inhibition of thymocyte proliferation stimulated by ConA and IL-2 (thymocyte [3]): inhibited thymocyte proliferation at the highest dose tested; inhibition of thymocyte proliferation stimulated by ConA and IL-1α (thymocyte [4]): inhibited thymocyte proliferation in a dose-response manner
"CC(O)CCCCn1c(=O)c2c(ncn2C)n(C)c1=O (stereo not drawn) [M1, 1-(5-hydroxyhexyl)-3,7-dimethylxanthine]",,,,,effect on cerebral blood flow [5]: increasing cerebral blood flow; effect on chemotaxis in polymorphonuclear leukocytes [6]: stimulate chemotaxis
